Data: US9642874B2, “Compositions of selenoorganic compounds and methods of use thereof” (Alltech, Inc., priority 2014, dated 2017)

Legend:
Foxo3 = test: Western blot of pFoxo3T32 in primary mouse hepatocytes; assay type: cell-based; settings: 100 nM insulin 6 hours, or Compounds CDE both doses 24 hours + 6 hours
Experimental: The overnight-acclimated hepatocytes were washed twice with PBS (to remove any residual FBS and other additives in the TRL hepatocyte maintenance medium, pretreated with control (water) or selenium Compounds CDE (150 or 300 ppb of each selenium compound) in DMEM/F12 media supplemented with 10% fetal bovine serum (FBS) for 24 hr. These cells were then washed twice with PBS and incubated with the same dose of selenium Compounds CDE (150 or 300 ppb) in the presence or absence of insulin (10 or 100 nM, Sigma), 0.1 mM 8-CPT (Sigma) or 0.5 μM Dex (Sigma) in serum-free and glucose-free DMEM media (Invitrogen) supplemented with 20 mM lactose (Sigma) and 2 mM pyruvate (Sigma) and 15 mM HEPES (Sigma) for another 6 hours. […]
After the above described treatments, primary mouse hepatocytes were rinsed with ice-cold PBS and lysed in the ice-cold RIPA buffer containing complete proteinase and phosphatase inhibitors (Thermo-Fisher Scientific, Waltham, Mass.) on ice for 30 min Cell lysates were collected using a cell scraper and transfer pipette and then centrifuged at 12000×g for 30 min at 4° C. to remove the DNA pellet and obtain the protein extract. Protein levels in the supernatant of these cell lysates were determined using the Pierce Micro-BCA protein assay kit (Thermo Scientific-Piece Biotechnology, Rockford, Ill.) according to the manufacturer's protocol. […]

G6pc = G6pc mRNA expression (QRT-PCR) in primary mouse hepatocytes; assay type: cell-based
Experimental: The overnight-acclimated hepatocytes were washed twice with PBS (to remove any residual FBS and other additives in the TRL hepatocyte maintenance medium, pretreated with control (water) or selenium Compounds CDE (150 or 300 ppb of each selenium compound) in DMEM/F12 media supplemented with 10% fetal bovine serum (FBS) for 24 hr. These cells were then washed twice with PBS and incubated with the same dose of selenium Compounds CDE (150 or 300 ppb) in the presence or absence of insulin (10 or 100 nM, Sigma), 0.1 mM 8-CPT (Sigma) or 0.5 μM Dex (Sigma) in serum-free and glucose-free DMEM media (Invitrogen) supplemented with 20 mM lactose (Sigma) and 2 mM pyruvate (Sigma) and 15 mM HEPES (Sigma) for another 6 hours. After treatments, cell media were collected and subjected to glucose assay and toxicological studies of lactate dehydrogenase (LDH) and cells were collected for RNA and protein analysis.
Total RNA from these cells was isolated using Trizol (Invitrogen) according to the Manufacturer's protocol and then incubated with DNase I to remove any potential contaminated genomic DNA. Then RNA samples were subjected to real-time PCR analysis using the Applied-Bioscience's RT kit and predesigned Taqman probes (Invitrogen), as described previously (Lan et al EMBO J 2003). Three to four samples were analyzed in each treatment group. […]

With “insulin: insulin (10 or 100 nM, Sigma) used as comparator and cotreatment” the “pFoxo3T32 protein level (in words)” value (Foxo3) was “significant increase”, the “8-CPT/Dex-induced G6pc expression” value (G6pc; insulin 10 and 100 nM, vs 8-CPT/Dex group) was “significantly decreased 8-CPT/Dex-induced G6pc expression” and the G6pc expression (G6pc; insulin alone (10 and 100 nM), 6 hours) was “significantly inhibited G6pc expression”.
